According to US20240150293A1, “SPIROCYCLOHEXANE DERIVATIVES, PHARMACEUTICAL COMPOSITIONS CONTAINING THEM AND THEIR USES AS ANTI-APOPTOTIC INHIBITORS” (LES LABORATOIRES SERVIER, priority 2021, published 2024):

Tests used:
[1] = biological target: Cy5-labelled Mcl1 (amino acids 171-321) C286S protein (UniProtKB Q07820) (Homo sapiens (Human), UniProt Q07820, C286S); assay: Inhibition of Mcl-1 by the fluorescence quenching assay (Example A, Method B); format: binding
How it was run: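 Cy5-labelled Mcl1 171-321 C286S (1 nM) quenched by TQ5WS-labelled PUMA peptide (10, 20 or 400 nM); displacement raises fluorescence (Ex 620/Em 680 nm). Buffer 10 mM HEPES, 150 mM NaCl, 0.05% Tween 20, pH 7.4, 5% DMSO; 2 h at room temperature, 11-point curves, IC50 converted to Ki (cKi/eKi).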

[2] = system: H929 multiple myeloma tumor line; assay: In vitro cytotoxicity, MTT assay (Example B, Method A); format: cell-based; conditions: Homo sapiens, NCI-H929, 48 h, H929 cells, 48 hours exposure, read-out: C50
Method: The cytotoxicity studies were carried out on the H929 multiple myeloma tumor line.
The cells are distributed onto microplates and exposed to the test compounds for 48 hours. The cell viability is then quantified by a colorimetric assay, the Microculture Tetrazolium Assay (Carmichael et al, Cancer Res. 1987, 47, 939-942).
The results are expressed in C50 which means concentration corresponding to […] of effect/inhibition.

Sequence of Cy5-labelled Mcl1 (amino acids 171-321) C286S protein (Q07820 171-321 C286S): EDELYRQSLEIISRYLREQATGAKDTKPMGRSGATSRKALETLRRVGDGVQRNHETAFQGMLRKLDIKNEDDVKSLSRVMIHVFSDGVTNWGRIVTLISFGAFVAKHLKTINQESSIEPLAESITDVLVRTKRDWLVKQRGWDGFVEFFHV

| Structure (SMILES) | Ki [1] | IC50 [2] |
| --- | --- | --- |
| C[C@@H](COc1ccnc2c1[C@@H](C)CCC2)CC1=Cc2ccccc2[C@]12CC[C@@](Nc1cccc(Cl)c1)(C(=O)O)CC2 [Example 647, (1r,4R)-4-(3-chloroanilino)-2′-[(2R)-2-methyl-3-{[(5S)-5-methyl-5,6,7,8-tetrahydroquinolin-4-yl]oxy}propyl]spiro[cyclohexane-1,1′-indene]-4-carboxylic acid] | 9.39 nM | 871 nM |
| CC[C@H]1CC[C@H](F)c2nccc(OC[C@H](C)C[C@H]3Cc4ccccc4[C@]34CC[C@@](Nc3cccc(Cl)c3)(C(=O)O)CC4)c21 [Example 696, (1r,2′S,4S)-4-(3-chloroanilino)-2′-[(2R)-3-{[(5S,8S)-5-ethyl-8-fluoro-5,6,7,8-tetrahydroquinolin-4-yl]oxy}-2-methylpropyl]-2′,3′-dihydrospiro[cyclohexane-1,1′-indene]-4-carboxylic acid] | 103 nM | 5070 nM |
| C[C@@H](CNc1ccncc1)C[C@H]1Cc2ccccc2[C@]12CC[C@@](Nc1cccc(Cl)c1)(C(=O)O)CC2 [Example 575, (1r,2′S,4S)-4-(3-chloroanilino)-2′-{(2R)-2-methyl-3-[(pyridin-4-yl)amino]propyl}-2′,3′-dihydrospiro[cyclohexane-1,1′-indene]-4-carboxylic acid] | 350 nM | 16200 nM |
| C[C@@H](COc1ccnc2c1[C@H](CC(F)(F)F)CCC2)C[C@H]1Cc2ccccc2[C@]12CC[C@@](Nc1cccc(Cl)c1)(C(=O)O)CC2 [Example 695, (1r,2′S,4S)-4-(3-chloroanilino)-2′-[(2R)-2-methyl-3-{[(5S)-5-(2,2,2-trifluoroethyl)-5,6,7,8-tetrahydroquinolin-4-yl]oxy}propyl]-2′,3′-dihydrospiro[cyclohexane-1,1′-indene]-4-carboxylic acid] | 29.6 nM | 3240 nM |
| C[C@@H](COc1ccnc2c(Cl)cn(C)c12)C[C@H]1Cc2ccccc2[C@]12CC[C@@](Nc1cccc(Cl)c1)(C(=O)O)CC2 [Example 631, (1r,2′S,4S)-4-(3-chloroanilino)-2′-{(2R)-3-[(3-chloro-1-methyl-1H-pyrrolo[3,2-b]pyridin-7-yl)oxy]-2-methylpropyl}-2′,3′-dihydrospiro[cyclohexane-1,1′-indene]-4-carboxylic acid] | 12.6 nM | 3170 nM |
| C[C@@H](COc1ccnc2c1[C@H](C)CCC2)CC1=Cc2cc(F)ccc2[C@]12CC[C@@](Nc1cccc(Cl)c1)(C(=O)O)CC2 [Example 767, (1r,4R)-4-(3-chloroanilino)-5′-fluoro-2′-[(2R)-2-methyl-3-{[(5R)-5-methyl-5,6,7,8-tetrahydroquinolin-4-yl]oxy}propyl]spiro[cyclohexane-1,1′-indene]-4-carboxylic acid] | 0.305 nM | 78.8 nM |

Now from value to compound, other results behind:

| Ki [1] | Structure (SMILES) | IC50 [2] |
| --- | --- | --- |
| 3.76 nM | C[C@@H](COc1ncnc2c1[C@H](C)CCC2)C[C@H]1Cc2ccccc2[C@]12CC[C@@](Nc1cccc(Cl)c1)(C(=O)O)CC2 [Example 638, (1r,2′S,4S)-4-(3-chloroanilino)-2′-[(2R)-2-methyl-3-{[(5R)-5-methyl-5,6,7,8-tetrahydroquinazolin-4-yl]oxy}propyl]-2′,3′-dihydrospiro[cyclohexane-1,1′-indene]-4-carboxylic acid] | 373 nM |
| 27.7 nM | C[C@@H](COc1ccnc2c1[C@H](C)CCC2)C[C@H]1Cc2ccccc2[C@]12CC[C@@](Nc1cc(Cl)ccc1F)(C(=O)O)CC2 [Example 705, (1r,2′S,4S)-4-(5-chloro-2-fluoroanilino)-2′-[(2R)-2-methyl-3-{[(5R)-5-methyl-5,6,7,8-tetrahydroquinolin-4-yl]oxy}propyl]-2′,3′-dihydrospiro[cyclohexane-1,1′-indene]-4-carboxylic acid] | 2750 nM |
| 4.8 nM | O=C(O)[C@]1(Nc2cccc(Cl)c2)CC[C@@]2(CC1)c1ccccc1CC2CC(COc1ccccc1)COc1ccnc2ccsc12 (stereo partly drawn) [Example 501, (1r,4r)-4-(3-chloroanilino)-2′-{2-(phenoxymethyl)-3-[(thieno[3,2-b]pyridin-7-yl)oxy]propyl}-2′,3′-dihydrospiro[cyclohexane-1,1′-indene]-4-carboxylic acid] | 431 nM |
| 0.901 nM | C[C@@H](COc1ccnc2c1[C@H](C)CCC2)C[C@H]1Cc2ccccc2[C@]12CC[C@@](Nc1cccc(Cl)c1F)(C(=O)O)CC2 [Example 706, (1r,2′S,4S)-4-(3-chloro-2-fluoroanilino)-2′-[(2R)-2-methyl-3-{[(5R)-5-methyl-5,6,7,8-tetrahydroquinolin-4-yl]oxy}propyl]-2′,3′-dihydrospiro[cyclohexane-1,1′-indene]-4-carboxylic acid] | 93.9 nM |
| 5.36 nM | C[C@@H](COc1ncnc2c1[C@H](C)CC2)CC1Cc2ccccc2[C@]12CC[C@@](Nc1cccc(Cl)c1)(C(=O)O)CC2 (stereo partly drawn) [Example 597, (1r,4R)-4-(3-chloroanilino)-2′-[(2R)-2-methyl-3-{[(5R)-5-methyl-6,7-dihydro-5H-cyclopenta[d]pyrimidin-4-yl]oxy}propyl]-2′,3′-dihydrospiro[cyclohexane-1,1′-indene]-4-carboxylic acid] | 1310 nM |
| 0.176 nM | C[C@@H](COc1ccnc2c1[C@H](C)CC[C@H]2O)C[C@H]1Cc2cc(F)ccc2[C@]12CC[C@@](Nc1cccc(Cl)c1)(C(=O)O)CC2 [Example 771, (1r,2′S,4S)-4-(3-chloroanilino)-5′-fluoro-2′-[(2R)-3-{[(5R,8R)-8-hydroxy-5-methyl-5,6,7,8-tetrahydroquinolin-4-yl]oxy}-2-methylpropyl]-2′,3′-dihydrospiro[cyclohexane-1,1′-indene]-4-carboxylic acid] | 18.3 nM |
| 50.9 nM | CC1CCCc2nccc(NC[C@H](C)C[C@H]3Cc4ccccc4[C@]34CC[C@@](Nc3cccc(Cl)c3)(C(=O)O)CC4)c21 (stereo partly drawn) [Example 655, (1r,2′S,4S)-4-(3-chloroanilino)-2′-{(2R)-2-methyl-3-[(5-methyl-5,6,7,8-tetrahydroquinolin-4-yl)amino]propyl}-2′,3′-dihydrospiro[cyclohexane-1,1′-indene]-4-carboxylic acid] | 8420 nM |
| 5.09 nM | C[C@@H](COc1ccnc2c1[C@H](C)C(F)(F)CC2)C[C@H]1Cc2ccccc2[C@]12CC[C@@](Nc1cccc(Cl)c1)(C(=O)O)CC2 [Example 700, (1r,2′S,4S)-4-(3-chloroanilino)-2′-[(2R)-3-{[(5S)-6,6-difluoro-5-methyl-5,6,7,8-tetrahydroquinolin-4-yl]oxy}-2-methylpropyl]-2′,3′-dihydrospiro[cyclohexane-1,1′-indene]-4-carboxylic acid] | 330 nM |
| 3.42 nM | C[C@@H](COc1ccnc2c1[C@@H](C)CCC2)C[C@H]1Cc2cc(Cl)c(O)cc2[C@]12CC[C@@](Nc1cccc(Cl)c1)(C(=O)O)CC2 [Example 814, (1r,2′S,4S)-5′-chloro-4-(3-chloroanilino)-6′-hydroxy-2′-[(2R)-2-methyl-3-{[(5S)-5-methyl-5,6,7,8-tetrahydroquinolin-4-yl]oxy}propyl]-2′,3′-dihydrospiro[cyclohexane-1,1′-indene]-4-carboxylic acid] | 135 nM |
